Measurements published in ChEMBL document CHEMBL3301361, “Experimental in vitro DMPK and physicochemical data on a set of publicly disclosed compounds”.
Converted amounts (≈) assume the structure as drawn.

Key:
[1] = physchem; conditions: octan-1-ol/water
[2] = in vitro; conditions: hepatocytes
[3] = in vitro; conditions: mouse, plasma
[4] = in vitro; conditions: SD, HW or BN, rat, plasma
[5] = in vitro; conditions: human
[6] = in vitro; conditions: Beagle, dog, plasma
[7] = in vitro; conditions: human, plasma, PPB
[8] = in vitro; conditions: Dunkin Hartley, guinea pig, plasma
[9] = in vitro; conditions: human, hepatocytes
[10] = physchem
[11] = physchem; conditions: pH 7.4 buffer
[12] = physchem; remark: listed apart in the source

SMILES | logD ([1]; pH 7.4, LogD7.4) | hepatocyte CLint [2] | fraction unbound at 5 h [4] | fraction unbound at 5 h [7] | fraction unbound at 5 h [8] | microsomal CLint ([5]; liver microsomes) | further results
C[C@H](c1nc2ncccc2c(=O)n1-c1ccc(Cl)cc1)N(CC1CCS(=O)(=O)CC1)C(=O)Cc1ccc(C(F)(F)F)c(F)c1 | 2.9 | 7.08 µL/min/1e6 cells | 0.101 | 0.11 | – | – | fraction unbound at 5 h [3]: 0.0477; microsomal CLint ([5]; microsomes): 5.25 µL/min/mg; fraction unbound at 5 h [6]: 0.0544
O=C1COc2c(CCNCCN(C(=O)CCNCCc3ccc(Cl)c(Cl)c3)C3CCCCC3)ccc(O)c2N1 | 2.23 | 22 µL/min/1e6 cells | 0.0801 | 0.0313 | 0.173 | – | microsomal CLint ([5]; microsomes): 38 µL/min/mg
Cc1nn(C2CCCCC2)c(N)c1-c1ccccc1 | – | – | 0.101 | 0.0447 | 0.105 | – | hepatocyte CLint [9]: 13.8 µL/min/1e6 cells
CC(=O)Nc1nc2c(Oc3cc(-c4ccc(C(F)(F)F)cc4)ncn3)cccc2s1 [AMG-517] | – | – | 0.002 | 0.001 | 0.0139 | – | –
CCN(CCNCCc1ccc(O)c2[nH]c(=O)sc12)C(=O)CCOCCc1ccccc1 | 1.92 | 135 µL/min/1e6 cells | – | 0.0544 | 0.103 | 82 µL/min/mg | –
COc1ccccc1CCNCc1ccc(CCNC[C@H](O)c2ccc(O)c3[nH]c(=O)sc23)cc1 | – | 29 µL/min/1e6 cells | 0.0606 | 0.0447 | 0.0447 | 25 µL/min/mg | –
C[C@@](C(=O)O[C@H]1C[N+]2(CCCc3ccc4ncsc4c3)CCC1CC2)(c1ccccc1)N1CCCCC1 | – | 66 µL/min/1e6 cells | – | – | 0.244 | – | –
Cc1ccc2c(c1)c(-c1ccnc3c(Cl)cccc13)c(C)n2CC(=O)O | 1.27 | – | 0.0077 | – | – | 7 µL/min/mg | fraction unbound at 5 h [3]: 0.0229; pKa [10]: 4.4; fraction unbound at 5 h [6]: 0.0041; solubility thermodynamic [11]: 1320 µM (≈ 481 µg/mL); pKa [12]: 2.9
CN(CCNCCc1ccc(O)c2[nH]c(=O)sc12)C(=O)CCOCCc1ccccc1 | – | 140 µL/min/1e6 cells | 0.208 | 0.107 | 0.276 | 35 µL/min/mg | –
N#Cc1ccc2c(c1)N(CCN1CCC(NCc3ccc4c(n3)NC(=O)CO4)CC1)C(=O)CO2 | – | 8.51 µL/min/1e6 cells | – | – | 0.591 | – | logD ([1]; pH 7.4): 0.23
C[N+]1(C)[C@@H]2C[C@@H](OC(=O)C(O)(c3cccs3)c3cccs3)C[C@H]1[C@@H]1O[C@@H]12 [TIOTROPIUM] | – | – | – | – | 0.613 | – | logD ([1]; pH 7.4): -0.25; fraction unbound at 5 h [6]: 0.807
COc1cnc(-c2ccccc2C(F)(F)CNC(=O)c2ccc(COCC(F)(F)F)nc2)cn1 | – | – | 0.0532 | 0.0069 | 0.0544 | – | solubility thermodynamic [11]: 85.1 µM (≈ 41.1 µg/mL)
CCCN(CCNCCc1ccc(O)c2[nH]c(=O)sc12)C(=O)CCOCCc1ccccc1 | – | 107 µL/min/1e6 cells | – | 0.0606 | 0.11 | > 150 µL/min/mg | –
Cc1nccn1CC1CCc2c(c3ccccc3n2C)C1=O (stereo unspecified) [ONDANSETRON] | 1.67 | – | – | – | 0.635 | 6.46 µL/min/mg | pKa [10]: 7.73; hepatocyte CLint [9]: < 3 µL/min/1e6 cells
CC(C)(C)NCC(O)c1ccc(O)c(CO)c1 (stereo unspecified) [ALBUTEROL] | – | – | 0.656 | 0.772 | 0.855 | – | –
CCCN(c1cncnc1)P(=O)(c1ccccc1)c1ccccc1 | – | – | – | – | 0.529 | – | –
C[C@@](C(=O)O[C@H]1C[N+]2(CCc3ccccc3F)CCC1CC2)(c1ccccc1)N1CCCCC1 | – | 130 µL/min/1e6 cells | – | – | 0.194 | – | –
C[C@@H](NC(=O)Cc1ccc(C2CC2)cc1)c1ccc(OCC(F)(F)F)cn1 | – | – | 0.0044 | 0.0041 | 0.0006 | – | –
O=c1[nH]c2c(O)ccc([C@@H](O)CNCCCOCCNCCc3cccc(Cl)c3)c2s1 | -0.03 | < 3 µL/min/1e6 cells | – | – | 0.186 | < 3 µL/min/mg | –
O=C(NCC1CCCCN1)c1cc(OCC(F)(F)F)ccc1OCC(F)(F)F (stereo unspecified) [FLECAINIDE] | 1.13 | – | 0.535 | 0.619 | 0.574 | – | –
CN(C)c1nc(Cc2ccc(NC(=O)c3ccc(C(F)(F)F)cc3)cc2)nc(N(C)C)c1CC(=O)O [BI-671800] | 1.46 | 18.6 µL/min/1e6 cells | 0.0025 | 0.0039 | 0.0437 | < 3 µL/min/mg | solubility thermodynamic [11]: 28.8 µM (≈ 14.4 µg/mL); hepatocyte CLint [9]: 4.47 µL/min/1e6 cells
Cc1ccc2c(OCCN3CCC(Cc4cccc(NS(C)(=O)=O)c4)CC3)cccc2n1 | – | – | 0.0532 | – | 0.0437 | – | –
